Measured values reported in EP0844879B1, “PHARMACEUTICAL CO[…] D[…] IN […] IMMUNE RESPONSE” (LA[…] SPINDLER, priority 1995, dated 1996).
Entries after “also recorded” stand apart in the source; their conditions may differ.

Test system: vaccin monovalent de la grippe (vaccin NIB16, souche A) (HA)
Experiment: Immunisation of mice with monovalent influenza vaccine, steroid as adjuvant; total anti-HA IgG in serum by enzyme immunoassay
Type: in vivo, souris BALB/C
Conditions: aged mice compared with young mice; steroid given with HA
Experimental: Un protocole d'immunisation contre le vaccin monovalent de la grippe (vaccin NIB16, souche A) (HA), est utilisé pour tester l'effet adjuvant du dérivé 3β-palmitoyl de la 7αOH-DHEA mis en solution à 10 mg/ml dans le DMSO.
Trois lots de 5 souris BALB/C âgées de 6 semaines (jeunes) et trois lots de 5 souris BALB/C âgées de 90 semaines (âgées) subissent le premier jour une injection sous-cutanée de 0,5 ml de sérum physiologique contenant : • soit 8 µg de HA + 1,8 µmole (0,78 mg/kg) de 3β-palmitoyl-7αOH-DHEA (lot 1) • soit 8 µg de HA + 1,8 µmole (0,56 mg/kg) de 7αOH-DHEA (lot 2) • soit 8 µg de HA (lot 3) Après 28 jours, chaque souris de chaque lot subit un rappel, les injections décrites étant répétées pour chaque lot. Après 38 jours, chaque souris de chaque lot est sacrifiée et le sang prélevé. Les IgG totales anti-HA sont mesurées dans chaque sérum par une méthode immunoenzymatique. […] Tableau 1

| Structure (SMILES) | réponse immunitaire des souris âgées (result in words) |
| --- | --- |
| CCCCCCCCCCCCCCCC(=O)O[C@H]1CC[C@@]2(C)C(=C[C@@H](O)[C@@H]3[C@@H]2CC[C@]2(C)C(=O)CC[C@@H]32)C1 [3β-palmitoyl-7αOH-DHEA] | rétablit la réponse immunitaire des souris âgées à un niveau proche de celui des souris jeunes; also recorded: a un effet sur la réponse immunitaire des souris âgées comparable à celui obtenu chez les souris jeunes |
| C[C@]12CC[C@H](O)CC1=C[C@@H](O)[C@@H]1[C@@H]2CC[C@]2(C)C(=O)CC[C@@H]12 [7αOH-DHEA, reference compound] | cette réponse n'est pas obtenue |
